Values after ≈ are worked out from the molar mass of the structure shown. Where a name gives a salt, the structure may show the parent alone.
Experiment: physchem
Assay type: physicochemical
From the text: Several salts of eletriptan have been identified that have properties which make them particularly suitable for development as drug substances. […] It is therefore desirable to provide a controlled release formulation capable of achieving a sigmoidal pattern of drug release and suitable for oral administration that is equally useful for the delivery of any form of eletriptan, regardless of its solubility.

Row | aqueous solubility [µg/mL] | solubility (20 °C, water, aqueous solubility) [µg/mL] | Compound
1 | > 200000 |  | eletriptan hemisulphate [hemisulphate salt]
2 | 2500 (≈ 6.54 mM) |  | CN1CCC[C@@H]1Cc1c[nH]c2ccc(CCS(=O)(=O)c3ccccc3)cc12 [eletriptan free base, 3-{[1-methylpyrrolidin-2(R)-yl]methyl}-5-(2-phenylsulfonylethyl)-1H-indole]
3 |  | 4000 | CN1CCC[C@@H]1Cc1c[nH]c2ccc(CCS(=O)(=O)c3ccccc3)cc12 [hydrobromide salt, eletriptan hydrobromide]

From patent US20020034545A1, “Particulate composition of eletriptan” (priority 2000, published 2002)
